{"source": "patent US20260355318A1", "about": "“MOLECULAR MACHINES FOR TREATMENT OF CANCER, FUNGAL INFECTIONS, OR BACTERIAL INFECTIONS” (priority 2022, published 2026)", "key": {"E. coli transcripts": {"system": "E. coli transcripts", "assay": "GO enrichment analysis of transcripts more abundant in DMSO controls than in MM 1-treated E. coli", "format": "cell-based, Escherichia coli", "conditions": "more abundant in DMSO controls than at 0.5×MIC, 405 nm", "method": "Gene ontology (GO) enrichment analysis of the transcripts displaying significant differences (p<0.05) in abundance between MM- and DMSO-treated cells was performed using Panther (http://pantherdb.org/) using the Fisher's Exact test. Results were corrected for the false discovery rate (FDR)."}, "C. albicans": {"system": "C. albicans", "assay": "MIC, visible-light-activated MMs and conventional antifungals, C. albicans", "format": "cell-based, Candida albicans (ATCC 18804)", "conditions": "Candida albicans, read-out: MIC of MM", "how_it_was_run": "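C. albicans suspensions (~10^4 CFU/mL in saline, CLSI) incubated 30 min in the dark with MMs, then irradiated with stirring at 405 nm, 292 mW cm^−2 for 5 min (87.6 J cm^−2). Cells then grown in MOPS-buffered RPMI 1640 (pH 7.0) at 30 °C for 48 h; MIC is lowest concentration with no visible growth; conventional antifungals tested likewise.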"}, "[1]": {"conditions": "cytosolic small ribosomal subunit"}, "[2]": {"conditions": "integral component of plasma membrane"}, "[3]": {"conditions": "intracellular anatomical structure"}, "[4]": {"conditions": "intracellular non-membrane-bounded organelle"}, "[5]": {"conditions": "intrinsic component of membrane"}, "[6]": {"conditions": "intrinsic component of plasma membrane"}, "[7]": {"conditions": "plasma membrane protein complex"}, "[8]": {"conditions": "plasma membrane respiratory chain complex I"}}}
{"smiles": "C[C@@H]1Cc2ccc3ccccc3c2/C1=C1\\c2ccccc2Sc2cc(NCCN(C)C)ccc21", "note": "[MM 1, N^1N^1-dimethyl-N^2-(9-(2-methyl-2,3-dihydro-1H-cyclopenta[a]naphthalen-1-ylidene)-9H-thioxanthen-3-yl) ethane-1,2-diamine]", "values": [{"measurement": "Fold Enrichment", "setting": "E. coli transcripts; NADH dehydrogenase complex", "result": 3.02}, {"measurement": "transcripts significantly enriched in DMSO controls, #", "setting": "E. coli transcripts; NADH dehydrogenase complex", "result": 15}, {"measurement": "Fold Enrichment", "setting": "E. coli transcripts; Unclassified (−)", "result": ".71"}, {"measurement": "transcripts significantly enriched in DMSO controls, #", "setting": "E. coli transcripts; Unclassified (−)", "result": 300}, {"measurement": "Fold Enrichment", "setting": "E. coli transcripts; catalytic complex", "result": 1.51}, {"measurement": "transcripts significantly enriched in DMSO controls, #", "setting": "E. coli transcripts; catalytic complex", "result": 129}, {"measurement": "Fold Enrichment", "setting": "E. coli transcripts; cell periphery", "result": 1.15}, {"measurement": "transcripts significantly enriched in DMSO controls, #", "setting": "E. coli transcripts; cell periphery", "result": 454}, {"measurement": "Fold Enrichment", "setting": "E. coli transcripts; cellular anatomical entity", "result": 1.14}, {"measurement": "transcripts significantly enriched in DMSO controls, #", "setting": "E. coli transcripts; cellular anatomical entity", "result": 969}, {"measurement": "Fold Enrichment", "setting": "E. coli transcripts; cytoplasm", "result": 1.18}, {"measurement": "transcripts significantly enriched in DMSO controls, #", "setting": "E. coli transcripts; cytoplasm", "result": 487}, {"measurement": "Fold Enrichment", "setting": "E. coli transcripts; cytosol", "result": 1.28}, {"measurement": "transcripts significantly enriched in DMSO controls, #", "setting": "E. coli transcripts; cytosol", "result": 394}, {"measurement": "transcripts significantly enriched in DMSO controls, #", "setting": "E. coli transcripts; cytosolic large ribosomal subunit", "result": 25}, {"measurement": "Fold Enrichment", "setting": "E. coli transcripts; cytosolic ribosome", "result": 2.64}, {"measurement": "transcripts significantly enriched in DMSO controls, #", "setting": "E. coli transcripts; cytosolic ribosome", "result": 44}, {"measurement": "Fold Enrichment", "setting": "E. coli transcripts; [1]", "result": 2.60}, {"measurement": "transcripts significantly enriched in DMSO controls, #", "setting": "E. coli transcripts; [1]", "result": 19}, {"measurement": "Fold Enrichment", "setting": "E. coli transcripts; integral component of membrane", "result": 1.20}, {"measurement": "transcripts significantly enriched in DMSO controls, #", "setting": "E. coli transcripts; integral component of membrane", "result": 386}, {"measurement": "Fold Enrichment", "setting": "E. coli transcripts; [2]", "result": 1.27}, {"measurement": "transcripts significantly enriched in DMSO controls, #", "setting": "E. coli transcripts; [2]", "result": 216}, {"measurement": "Fold Enrichment", "setting": "E. coli transcripts; [3]", "result": 1.20}, {"measurement": "transcripts significantly enriched in DMSO controls, #", "setting": "E. coli transcripts; [3]", "result": 509}, {"measurement": "Fold Enrichment", "setting": "E. coli transcripts; [4]", "result": 2.09}, {"measurement": "transcripts significantly enriched in DMSO controls, #", "setting": "E. coli transcripts; [4]", "result": 61}, {"measurement": "Fold Enrichment", "setting": "E. coli transcripts; intracellular organelle", "result": 2.01}, {"measurement": "transcripts significantly enriched in DMSO controls, #", "setting": "E. coli transcripts; intracellular organelle", "result": 63}, {"measurement": "Fold Enrichment", "setting": "E. coli transcripts; [5]", "result": 1.19}, {"measurement": "transcripts significantly enriched in DMSO controls, #", "setting": "E. coli transcripts; [5]", "result": 392}, {"measurement": "Fold Enrichment", "setting": "E. coli transcripts; [6]", "result": 1.29}, {"measurement": "transcripts significantly enriched in DMSO controls, #", "setting": "E. coli transcripts; [6]", "result": 225}, {"measurement": "Fold Enrichment", "setting": "E. coli transcripts; large ribosomal subunit", "result": 2.67}, {"measurement": "transcripts significantly enriched in DMSO controls, #", "setting": "E. coli transcripts; large ribosomal subunit", "result": 25}, {"measurement": "Fold Enrichment", "setting": "E. coli transcripts; membrane protein complex", "result": 1.55}, {"measurement": "transcripts significantly enriched in DMSO controls, #", "setting": "E. coli transcripts; membrane protein complex", "result": 98}, {"measurement": "Fold Enrichment", "setting": "E. coli transcripts; membrane", "result": 1.16}, {"measurement": "transcripts significantly enriched in DMSO controls, #", "setting": "E. coli transcripts; membrane", "result": 470}, {"measurement": "Fold Enrichment", "setting": "E. coli transcripts; non-membrane-bounded organelle", "result": 1.68}, {"measurement": "transcripts significantly enriched in DMSO controls, #", "setting": "E. coli transcripts; non-membrane-bounded organelle", "result": 64}, {"measurement": "Fold Enrichment", "setting": "E. coli transcripts; organelle", "result": 1.65}, {"measurement": "transcripts significantly enriched in DMSO controls, #", "setting": "E. coli transcripts; organelle", "result": 66}, {"measurement": "Fold Enrichment", "setting": "E. coli transcripts; oxidoreductase complex", "result": 2.47}, {"measurement": "transcripts significantly enriched in DMSO controls, #", "setting": "E. coli transcripts; oxidoreductase complex", "result": 47}, {"measurement": "Fold Enrichment", "setting": "E. coli transcripts; [7]", "result": 1.51}, {"measurement": "transcripts significantly enriched in DMSO controls, #", "setting": "E. coli transcripts; [7]", "result": 73}, {"measurement": "Fold Enrichment", "setting": "E. coli transcripts; plasma membrane respirasome", "result": 2.99}, {"measurement": "transcripts significantly enriched in DMSO controls, #", "setting": "E. coli transcripts; plasma membrane respirasome", "result": 21}, {"measurement": "Fold Enrichment", "setting": "E. coli transcripts; [8]", "result": 2.99}, {"measurement": "transcripts significantly enriched in DMSO controls, #", "setting": "E. coli transcripts; [8]", "result": 14}, {"measurement": "Fold Enrichment", "setting": "E. coli transcripts; plasma membrane", "result": 1.19}, {"measurement": "transcripts significantly enriched in DMSO controls, #", "setting": "E. coli transcripts; plasma membrane", "result": 431}, {"measurement": "Fold Enrichment", "setting": "E. coli transcripts; protein-containing complex", "result": 1.47}, {"measurement": "transcripts significantly enriched in DMSO controls, #", "setting": "E. coli transcripts; protein-containing complex", "result": 258}, {"measurement": "Fold Enrichment", "setting": "E. coli transcripts; respirasome", "result": 3.04}, {"measurement": "transcripts significantly enriched in DMSO controls, #", "setting": "E. coli transcripts; respirasome", "result": 24}, {"measurement": "Fold Enrichment", "setting": "E. coli transcripts; respiratory chain complex I", "result": 2.99}, {"measurement": "transcripts significantly enriched in DMSO controls, #", "setting": "E. coli transcripts; respiratory chain complex I", "result": 14}, {"measurement": "Fold Enrichment", "setting": "E. coli transcripts; respiratory chain complex", "result": 3.01}, {"measurement": "transcripts significantly enriched in DMSO controls, #", "setting": "E. coli transcripts; respiratory chain complex", "result": 22}, {"measurement": "Fold Enrichment", "setting": "E. coli transcripts; ribonucleoprotein complex", "result": 2.61}, {"measurement": "transcripts significantly enriched in DMSO controls, #", "setting": "E. coli transcripts; ribonucleoprotein complex", "result": 45}, {"measurement": "Fold Enrichment", "setting": "E. coli transcripts; ribosomal subunit", "result": 2.64}, {"measurement": "transcripts significantly enriched in DMSO controls, #", "setting": "E. coli transcripts; ribosomal subunit", "result": 44}, {"measurement": "Fold Enrichment", "setting": "E. coli transcripts; ribosome", "result": 2.51}, {"measurement": "transcripts significantly enriched in DMSO controls, #", "setting": "E. coli transcripts; ribosome", "result": 47}, {"measurement": "Fold Enrichment", "setting": "E. coli transcripts; small ribosomal subunit", "result": 2.60}, {"measurement": "transcripts significantly enriched in DMSO controls, #", "setting": "E. coli transcripts; small ribosomal subunit", "result": 19}, {"measurement": "MIC", "setting": "C. albicans", "result": "≤ 5", "unit": "µM"}]}
{"smiles": "C[C@@H]1Cc2ccc3ccccc3c2/C1=C1\\c2ccccc2Sc2cc(NCCN)ccc21", "note": "(racemic) [MM 6, N^1-(9-(2-methyl-2,3-dihydro-1H-cyclopenta[a]naphthalen-1-ylidene)-9H-thioxanthen-3-yl)ethane-1,2-diamine]", "values": [{"measurement": "MIC", "setting": "C. albicans", "result": "≤ 5", "unit": "µM"}]}
